{"source": "patent US20130191933A1", "about": "“METHODS OF TREATING PAIN AND MORPHINE TOLERANCE VIA MODULATION OF HEDGEHOG SIGNALLING PATHWAY” (BOARD OF REGENTS, THE UNIVERSITY OF TEXAS SYSTEM, priority 2010, published 2013)", "key": {"[1]": {"tested_on": "rats with sciatic nerve ligation (neuropathic pain)", "assay": "Neuropathic pain paradigm: sciatic nerve ligation, mechanical allodynia by Von Frey filaments", "type": "in vivo, Sprague-Dawley rats", "conditions": "rats two weeks after sciatic nerve ligation; daily intrathecal (lumbar puncture) drug; sub-clinical/low dose of morphine", "method": "Animals underwent sciatic nerve ligation as described (Chung et al.), and were then allowed to recover for two weeks. Allodynia was measured using mechanical withdrawal threshold (Von Frey hairs). […] Drugs were administered using lumbar puncture under anesthesia.\nHh signaling modulates neuropathic pain, inflammatory pain, and opioid tolerance in rats. […] With regards to neuropathic pain, animals underwent sciatic nerve ligation as previously described in Chung et al., and were then allowed to recover for two weeks. Allodynia was measured by assessing the withdrawal threshold to a mechanical stimulus (Von Frey hairs). […] Drugs were administered using lumbar puncture under anesthesia.\nTo test this, we examined the effects of pharmacologically blocking Smoothened activity in rodent pain models. Injection of Complete Freund's Adjuvant (CFA) into the rat hindpaw causes local inflammation, swelling, and decreased nociceptive thresholds, Stein, C., et al., A. Unilateral inflammation of the Hindpaw in rats as a Model of Prolonged Noxious Stimulation: Alterations in Behavior and Nociceptive Thresholds, Pharmacol Biochem Behav 31, […] (1988). FIG. 11 provides an inflammatory pain paradigm. Here, the hindpaws were injected with saline (sham, n=6), or CFA. […] Similarly, FIG. 10 provides a neuropathic pain paradigm. […] Mechanical allodynia was assessed using Von Frey filaments. […]"}, "[2]": {"tested_on": "rats with complete Freund's adjuvant (CFA) injection (inflammatory pain)", "assay": "Inflammatory pain paradigm: CFA hindpaw injection, thermal hyperalgesia by paw withdrawal latency (PWL)", "type": "in vivo, Sprague-Dawley rats", "conditions": "rats after CFA hindpaw injection, intrathecal (lumbar puncture) drug, Days 1-4", "method": "Animals underwent complete Freund's adjuvant (CFA) injection under anesthesia. Hyperalgesia was then measured using withdrawal latency of the paw to a thermal stimulus (PWL). […] Drugs were administered using lumbar puncture under anesthesia.\nHyperalgesia was then measured using withdrawal latency of the paw to a thermal stimulus (PWL). […] Drugs were administered using lumbar puncture under anesthesia..\nTo test this, we examined the effects of pharmacologically blocking Smoothened activity in rodent pain models. Injection of Complete Freund's Adjuvant (CFA) into the rat hindpaw causes local inflammation, swelling, and decreased nociceptive thresholds, Stein, C., et al., A. Unilateral inflammation of the Hindpaw in rats as a Model of Prolonged Noxious Stimulation: Alterations in Behavior and Nociceptive Thresholds, Pharmacol Biochem Behav 31, […] (1988). FIG. 11 provides an inflammatory pain paradigm. Here, the hindpaws were injected with saline (sham, n=6), or CFA. […] Similarly, FIG. 10 provides a neuropathic pain paradigm. […] Animals received daily intrathecal injections of vehicle (n=3) or drugs (CP, n=6; MS, n=6; or MS+CP, n=5). Mechanical allodynia was assessed using Von Frey filaments. […] All data are+/−S.E.M.\nAnimals: Sprague-Dawley rats (male, […]) were housed three to a cage with water and food ad libitum and kept in temperature controlled rooms on a 12:12 hour light-dark cycle, with the dark cycle beginning at 7:00 pm. Animals were habituated to the testing environment for one week prior to testing and all tests were performed in the morning. All protocols were approved by our Institutional Animal Care and Use Committee.\n(§1) Drugs and Intermittent Lumbar Puncture: Rats were anesthetized with 2% isoflurane in oxygen. The lumbar region was shaved, prepared with Betadine solution and the intervertebral spaces widened by placing the animal on a plexiglas tube.\nComplete Freund's Adjuvant (CFA) […]: Under isoflurane […], the plantar surface of the left hindpaw was cleansed and 100 μl of CFA (Sigma, St. Louis, Mo.) injected using a 25-gauge needle. Animals recovered for 24 hours prior to analgesic testing.\nPaw Withdrawal Latency (PWL): PWL was measured by placing the animals in Plexiglas cages (9×22×25 cm.) on a modified Hargreaves Device, consisting of a glass surface maintained at 30° C. A stimulus lamp was focused on the tail with three measurements taken on different portions of the tail. An abrupt flick of the tail secondary to the thermal stimulus was sensed by photodiodes, and this served to terminate the stimulus and stop the timer. Animals were habituated to the device for one week prior to testing and for 30 min before each test session. The intensity of the thermal stimulus used in the TFL test was adjusted so baseline TFL was between 10-12 seconds to 20 second was used as an automatic cutoff time to avoid paw damage. The TFLs at the time points of 15, 30, and 45 minutes post-injection were measured and compared (n=6-8 per group)."}, "[3]": {"tested_on": "morphine tolerance in rats", "assay": "Morphine tolerance assessed by tail flick latency (TFL)", "type": "in vivo", "method": "(§2) Drugs were administered daily using lumbar puncture under anesthesia. Tolerance was then assessed using tail flick latency (TFL), or the withdrawal latency of the tail to a thermal stimulus. […] On Day 8, all animals received morphine alone.\nas §2, §1"}, "[4]": {"biological_target": "Smo (Homo sapiens, UniProt Q99835)", "sequence (Q99835 28-787)": "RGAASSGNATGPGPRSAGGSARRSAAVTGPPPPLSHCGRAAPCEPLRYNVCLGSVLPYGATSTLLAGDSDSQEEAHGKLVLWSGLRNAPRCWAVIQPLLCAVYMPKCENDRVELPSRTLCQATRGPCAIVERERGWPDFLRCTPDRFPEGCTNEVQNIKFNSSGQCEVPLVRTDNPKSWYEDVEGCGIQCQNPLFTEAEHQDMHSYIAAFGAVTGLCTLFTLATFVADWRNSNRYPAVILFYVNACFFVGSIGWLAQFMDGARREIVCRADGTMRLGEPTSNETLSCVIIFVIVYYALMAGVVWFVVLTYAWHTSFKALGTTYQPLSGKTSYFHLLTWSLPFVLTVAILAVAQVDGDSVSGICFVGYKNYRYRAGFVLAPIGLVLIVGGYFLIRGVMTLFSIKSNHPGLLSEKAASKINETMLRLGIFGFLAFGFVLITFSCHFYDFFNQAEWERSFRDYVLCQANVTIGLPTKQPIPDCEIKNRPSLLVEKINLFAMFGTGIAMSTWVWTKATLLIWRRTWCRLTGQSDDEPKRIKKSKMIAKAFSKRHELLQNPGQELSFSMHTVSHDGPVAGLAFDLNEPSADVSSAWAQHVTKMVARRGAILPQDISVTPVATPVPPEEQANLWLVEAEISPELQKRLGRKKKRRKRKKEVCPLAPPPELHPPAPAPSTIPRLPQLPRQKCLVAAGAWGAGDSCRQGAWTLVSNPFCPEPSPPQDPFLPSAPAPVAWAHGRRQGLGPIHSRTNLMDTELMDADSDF", "conditions": "cited from earlier work"}, "[5]": {"tested_on": "Gli1, Gli2, PtchI and other Shh-target genes", "conditions": "in a variety of cell types; cited from earlier work"}, "[6]": {"tested_on": "Gli-mediated transcription", "conditions": "in a variety of cell types (Cur-61414: cell and tissues types; Robotnikinin: also synthetic human tissue); cited from earlier work"}, "[7]": {"biological_target": "Shh (Homo sapiens, UniProt Q15465)", "sequence (Q15465 24-462, species assumed)": "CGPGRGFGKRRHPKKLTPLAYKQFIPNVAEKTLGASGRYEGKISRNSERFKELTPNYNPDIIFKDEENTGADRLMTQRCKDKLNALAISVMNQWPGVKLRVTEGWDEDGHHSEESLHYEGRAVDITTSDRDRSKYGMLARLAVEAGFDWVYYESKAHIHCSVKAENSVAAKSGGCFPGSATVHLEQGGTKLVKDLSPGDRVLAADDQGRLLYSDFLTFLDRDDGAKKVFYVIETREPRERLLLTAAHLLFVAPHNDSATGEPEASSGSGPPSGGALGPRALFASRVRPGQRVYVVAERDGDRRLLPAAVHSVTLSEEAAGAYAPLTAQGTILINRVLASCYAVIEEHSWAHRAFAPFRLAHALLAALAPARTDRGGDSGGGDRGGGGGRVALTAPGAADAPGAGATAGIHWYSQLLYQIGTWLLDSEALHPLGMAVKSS", "conditions": "cited from earlier work"}}, "note": "Entries after “also recorded” stand apart in the source; their conditions may differ. Like-named read-outs stand apart in the source and are kept apart here."}
{"smiles": "CC1=C2C[C@H]3[C@@H](CC=C4C[C@@H](O)CC[C@@]43C)[C@@H]2CC[C@]12O[C@@H]1C[C@H](C)CN[C@H]1[C@H]2C", "note": "[Cyclopamine]", "values": [{"measurement": "analgesic effect on mechanical allodynia (mechanical withdrawal threshold, Von Frey)", "setting": "[1]", "result": "Neither morphine or cyclopamine had analgesic effects; also recorded: Neither a sub-clinical dose of morphine nor cyclopamine had analgesic effects; also recorded: neither cyclopamine nor a low dose of morphine had analgesic effects alone"}, {"measurement": "analgesic effect on thermal hyperalgesia (paw withdrawal latency, PWL)", "setting": "[2]", "result": "mild analgesic effect that plateaued"}, {"measurement": "analgesic effect on thermal hyperalgesia (paw withdrawal latency, PWL)", "setting": "[2]; listed as cyclopamine", "result": "mild analgesic effect that plateaued; also recorded: had no analgesic effect"}, {"measurement": "reversal of morphine tolerance (tail flick latency, TFL)", "setting": "[3]; daily lumbar puncture, cyclopamine added to morphine from start, Day 3 or Day 5", "result": "completely reversed tolerance within two days; also recorded: reverses the development of morphine tolerance"}, {"measurement": "tolerance on Day 8 after cyclopamine was removed (TFL)", "setting": "[3]; on Day 8 all animals received morphine alone", "result": "animals were not tolerant on Day 8"}, {"measurement": "targeting / binding of Smo", "setting": "[4]", "result": "Targets Smo"}, {"measurement": "targeting / binding of Smo", "setting": "[4]; listed as cyclopamine", "result": "target Smo"}]}
{"smiles": "CC1=C2C(=O)[C@H]3[C@@H](CC=C4C[C@@H](O)CC[C@@]43C)[C@@H]2CC[C@]12O[C@@H]1C[C@H](C)CN[C@H]1[C@H]2C", "note": "[Jervine]", "values": [{"measurement": "targeting / binding of Smo", "setting": "[4]", "result": "Targets Smo"}, {"measurement": "targeting / binding of Smo", "setting": "[4]; listed as jervine", "result": "target Smo"}, {"measurement": "transcription of Gli1, Gli2, PtchI and other Shh-target genes", "setting": "[5]", "result": "Inhibits transcription of Gli1, Gli2, PtchI and other Shh-target"}]}
{"smiles": "O=C(C[C@@H]1C/C=C/CCC(=O)O[C@H](c2ccccc2)CNC1=O)NCc1ccc(Cl)cc1", "note": "[Robotnikinin]", "values": [{"measurement": "Gli-mediated transcription", "setting": "[6]", "result": "Represses Gli-medicated transcription in a variety of cell types and"}, {"measurement": "direct binding to Shh", "setting": "[7]", "result": "binds directly to Sonic Hedgehog; also recorded: Binds directly to Shh"}]}
